Measured values reported in patent publication US12258477B2, “Silicon-substituted rhodamine dyes and dye conjugates” (Life Technologies Corporation, priority 2018, dated 2025).
Entries after “also recorded” stand apart in the source; their conditions may differ.

Assays:
Live HeLa cells [1] = assay: Live cell nuclear staining, fluorescence microscopy vs SiR-Hoechst (Example 2); type: cell-based; details: 1 μM and 2 μM
Experimental: The fluorescence intensity of Compound 4 was compared to SiR-Hoechst (Spirochrome, Switzerland) using fluorescence microscopy. Live HeLa cells were stained with SiR-Hoechst or Compound 4 at 1 μM or 2 μM for 30 minutes at 37° C. After washing with LCIS buffer to remove excess dye, images from 5 replicates were collected using the Cy5 channel of a fluorescence microscope and analyzed using HCS Studio software. Representative images of cells are shown in FIGS. 3A-3B (stained with SiR-Hoechst) and FIGS. 3C-3D (stained with Compound 4). […] The mean nuclear signal intensity was 48% higher in the cells stained with Compound 4 than in the cells stained with SiR-Hoechst, based on averaging the ratios of fluorescence intensity at 1 μM and 2 μM.

[2] = Excitation and emission maxima of compounds dissolved in solvents; type: physicochemical
Experimental: Certain compounds were tested when dissolved in solvents. Three replicates were performed to determine the excitation and emission maxima.

tubulin [3] = assay: Tubulin staining of live cells with docetaxel probes vs SiR-Taxol (Examples 3, 13); type: cell-based; details: live HeLa, 0.5 μM, 30 min 37 °C
Experimental: The fluorescence intensity of Compound 5 (a tubulin probe using docetaxel as the target-binding moiety) was compared to SiR-Taxol (Spirochrome, Switzerland). Live HeLa cells were stained with 0.5 μM Compound 5 or SiR-Taxol for 30 minutes at 37° C. and prepared for imaging. Images are shown in FIGS. 4A-4B (stained with Compound 5), and FIGS. 4C-4D (stained with SiR-Taxol).
The fluorescence intensity of two diasteromers of Compound 5 and a mixture of two isomers was compared to SiR-Taxol (Spirochrome, Switzerland). Live HeLa cells were stained with 0.5 μM of each compound for 30 minutes at 37° C. and prepared for imaging.

Fixed HeLa cells = assay: Fixed cell nuclear staining and photostability vs TO-PRO-3 (Example 4); type: cell-based; details: 1 μM, Cy5 channel
Experimental: The fluorescence intensity and photostability of Compound 7 were compared with TO-PRO-3, a fixed cell nucleic acid stain with far-red fluorescence. Fixed HeLa cells were stained with 1 μM Compound 7 or TO-PRO-3 for 30 minutes at RT and prepared for imaging using the Cy5 channel of a fluorescence microscope.

[4] = Fluorescence characteristics, dye only dissolved in water; type: physicochemical; details: for Emission in water (λem) / absorption in water (λabs): Table 6, in water; for shift of absorption maxima to blue when each vinyl group was changed to a methyl: relative to Compound 11
Experimental: (§1) The fluorescence characteristics of various disclosed compounds and ALEXA FLUOR™ 647 dye (AF647) dissolved in water (dye only) or as goat anti-mouse (GAM) IgG conjugates dissolved in phosphate buffered saline (PBS) were determined. Three replicates were performed to determine the excitation and emission maxima and quantum yield. Quantum yield was measured for the dye only samples.
Experiments were performed to examine the effect of different SiR substitution patterns on absorption maxima using Compounds 10A, 11, 12, and 13. One or both of the vinyl groups of Compound 11 are replaced with methyl in Compounds 10A and 12, respectively. In Compound 13, one methyl group on each of the two exocyclic amines was eliminated relative to Compound 12. […] A 30 nm shift was observed when one methyl group on each of the two exocyclic amines was eliminated (Table 6). Therefore, modification of SiR dyes using groups linked to the SiR moiety through the Si have a smaller effect than the removal of methyl groups.

[5] = Fluorescence characteristics of goat anti-mouse (GAM) IgG conjugates in PBS; type: physicochemical; details: for Max Abs / Max Em: GAM IgG conjugate in PBS; for Absorption of IgG conjugates / Emission of IgG conjugates: Table 6, IgG conjugates in PBS
Experimental: as §1
The effect of conjugation of an SiR, in this example Compounds 8, 10A, and 12, to IgG on absorbance (shown in FIG. 11A) and on emission (shown in FIG. 11B) maxima were compared with IgG-AF647. The absorption and emission maxima of the SiR-conjugates (665 nm/690 nm) are approximately 20 nm red-shifted compared with AF647 conjugate. The emission maximum shifted 15 nm to red.

Live HeLa cells [6] = assay: Live cell nuclear staining with ESP-SiR isomers, HeLa (Example 12); type: cell-based; details: 1 μM, 30 min 37 °C
Experimental: The fluorescence intensity of each isomer of Compound 4 (Compound 4B and Compound 4C) was compared using fluorescence microscopy. A DMSO stock solution (1 mM) was used to prepare solutions of each isomer to a final concentration of 5, 2.5, 1.25 and 0.6 μM in PBS containing probenecid.
Live HeLa or A549 cells were stained with each concentration of isomer for 30 minutes at 37° C. After washing with LCIS buffer to remove excess dye, images from 5 replicates were collected using the Cy5 channel of a fluorescence microscope and analyzed using HCS Studio software. […] The mean nuclear signal intensity was almost 2-fold higher in both cell types stained with Compound 4B than in the cells stained with Compound 4C at each of the concentrations tested.
The fluorescence intensity of Compound 4B and 4C was compared to SiR-Hoechst (Spirochrome, Switzerland) using fluorescence microscopy. Live HeLa cells were stained with SiR-Hoechst or Compound 4B or 4C at 1 μM for 30 minutes at 37° C. After washing with LCIS buffer to remove excess dye, images from 5 replicates were collected using the Cy5 and D API channels of a fluorescence microscope and analyzed using HCS Studio software.

A549 cells = assay: Photobleaching of dye-labeled secondary antibody conjugates in fixed cells without anti-fade medium; type: cell-based; details: GAM antibody conjugates (13 DOL 4.7, 14 DOL 4.0, AF647 DOL 4.9); over 700 seconds exposure, no anti-fade medium
Experimental: A549 cells were plated at a density of 5,000 cells per well on Greiner 96 well plates and allowed to adhere overnight. The following day, they were treated for two hours at 37° C. with 50 μM etoposide to induce phosphorylation of pH2AX for antibody probing, then fixed for 20 minutes at room temperature in 4% PFA, prepared in PBS. After fixation, cells were rinsed 3× in PBS and permeabilized for 20 minutes with 0.1% Triton X-100, prepared in PBS. Following Triton treatment, cells were washed 3× in PBS and placed in blocking solution, made with 3% BSA in PBS. Each plate was treated with primary antibody, prepared in blocking solution at 5 μg/mL, either […]. Following incubation with primary antibody, cells were washed 3× in PBS and stored in blocking solution before probing with secondary antibody. Secondary antibody labeled with Compound 13 (DOL 4.7); Compound 14 (DOL 4.0) or AF647 (DOL 4.9) was prepared from 5 μg/mL in blocking solution and cells were incubated for one hour at room temperature before washing 3× in PBS and moving plates to the CX-5 CellInsight for quantification of signal. The fluorescent signal data was collected every second for over 700 seconds' period. […]
Fluorescence intensity was monitored in samples mounted without anti-fade medium over a period of about 12 minutes of exposure to excitatory light.

tubulin [7] = assay: Immunofluorescence tubulin staining with dye-labeled antibody conjugates vs AF647 (Example 9); type: cell-based, mouse
Experimental: The fluorescence intensity of SiR conjugates, Compound 10A (DOL=15) and Compound 10A (DOL=10), where DOL is the degree of labeling, were compared to an AF647 conjugate using fluorescence microscopy. Live mouse cells were stained with mouse anti-tubulin conjugated to AF647 (shown in FIG. 12A), or mouse anti-tubulin conjugated with Compound 10A (DOL=15 shown in FIG. 12B) at increasing concentrations for 60 minutes at 25° C. After washing with PBS buffer to remove excess dye, images were collected using the Cy5 channel of a fluorescence microscope and analyzed using integrated software. […] The SiR dyes gave images 6-8 fold dimmer that AF647 in the Cy5 channel, consistent with the shifted maxima discussed above. […] Little to no photobleaching was observed during imaging.

Compound | Max Abs ([4]; Dye Only in water) [nm] | Max Em ([4]; Dye Only in water) [nm] | Quantum Yield ([4]; Dye Only in water) | Quantum Yield ([4]; Table 6) [%] | Emission in water (λem) [4] [nm] | absorption in water (λabs) [4] [nm] | Max Abs [5] [nm] | Max Em [5] [nm] | Absorption of IgG conjugates [5] [nm] | Emission of IgG conjugates [5] [nm] | further results
CN1CCN(c2ccc3[nH]c(-c4ccc5[nH]c(-c6ccc(OCCCCNC(=O)CCSCC[Si]7(C)C8=CC(=[N+](C)C)C=CC8=C(c8ccccc8C(=O)[O-])c8ccc(N(C)C)cc87)cc6)nc5c4)nc3c2)CC1 (stereo not shown) [Compound 4] | – | – | – | – | – | – | – | – | – | – | mean nuclear signal intensity, higher than in cells stained with SiR-Hoechst (Live HeLa cells [1]; live HeLa, 30 min 37 °C, Cy5 channel, averaged ratios of fluorescence intensity): 48%; staining brightness compared with SiR-Hoechst (Live HeLa cells [1]; live cells): noticeably brighter
CC(=O)O[C@@]12CO[C@@H]1C[C@H](O)[C@@]1(C)C(=O)[C@H](O)C3=C(C)[C@@H](OC(=O)[C@H](O)[C@@H](NC(=O)CCCCCNC(=O)CCSCC[Si]4(C)C5=CC(=[N+](C)C)C=CC5=C(c5ccccc5C(=O)[O-])c5ccc(N(C)C)cc54)c4ccccc4)C[C@@](O)([C@@H](OC(=O)c4ccccc4)C12)C3(C)C (stereo partly shown) [Compound 5] | – | – | – | – | – | – | – | – | – | – | Max Abs ([2]; Solvent MeOH/HCl): 650 nm; Max Em ([2]; Solvent MeOH/HCl): 676 nm; fluorescence signal compared with SiR-Taxol (tubulin [3]): brighter signal than cells stained with SiR-Taxol
CN(C)c1ccc2c(c1)[Si](C)(C)C1=CC(=[N+](C)C)C=CC1=C2c1ccccc1C(=O)N1CCC(C(=O)O)CC1 [Compound 7A] | – | – | – | – | – | – | – | – | – | – | Max Abs ([2]; Solvent MeOH): 657 nm; Max Em ([2]; Solvent MeOH): 682 nm
CN1CCN(c2ccc3[nH]c(-c4ccc5[nH]c(-c6ccc(OCCCCNC(=O)C7CCN(C(=O)c8ccccc8C8=C9C=CC(=[N+](C)C)C=C9[Si](C)(C)c9cc(N(C)C)ccc98)CC7)cc6)nc5c4)nc3c2)CC1 [Compound 7] | – | – | – | – | – | – | – | – | – | – | Max Abs ([2]; Solvent TE): 672 nm; Max Em ([2]; Solvent TE): 678 nm; staining brightness, Compound 7 vs TO-PRO-3 (Fixed HeLa cells; 30 min RT): unexpectedly brighter than TO-PRO-3 staining; fluorescence after a 1 minute exposure to excitation light (Fixed HeLa cells): still retained substantial fluorescence
C=C[Si]1(C=C)c2cc(N(C)C)ccc2C2(OC(=O)c3ccccc32)c2ccc(N(C)C)cc21 [Compound 11, Si,Si-Divinyl-N,N-tetramethyl-SiR] | 670 | 683 | 0.38 | 38 | 683 | 670 | 671 | 693 | 671 | 692 | –
CN1CCN(c2ccc3nc(-c4ccc5nc(-c6ccc(OCCCCNC(=O)c7ccc(C(=O)[O-])c(C8=C9C=CC(=[N+](C)C)C=C9[Si](C)(C)c9cc(N(C)C)ccc98)c7)cc6)[nH]c5c4)[nH]c3c2)CC1 [SiR-Hoechst] | – | – | – | – | – | – | – | – | – | – | signal on the DAPI channel (Live HeLa cells [6]): almost no signals were observed
C[n+]1c(/C=C/C=C2\C=CN(CCC[N+](C)(C)C)c3ccccc32)sc2ccccc21 [TO-PRO-3, reference compound] | – | – | – | – | – | – | – | – | – | – | fluorescence after a 1 minute exposure to excitation light (Fixed HeLa cells): little to no fluorescence was observable; also recorded: more diminished
Si,Si-dimethyl-N, N-dimethyl-SiR [Compound 13] | 630 | 642 | 0.5 | 50 | 642 | 630 | 635 | 655 | 635 | 655 | resistance to photobleaching (A549 cells): substantially resistant to photobleaching; also recorded: much more resistant to photobleaching; shift of absorption maxima when one methyl group on each of the two exocyclic amines was eliminated ([4]; relative to Compound 12): 30 nm
Si,Si-dimethyl-N, N-tetramethyl-SiR [Compound 12] | 661 | 673 | 0.45 | 45 | 673 | 661 | 662 | 681 | 664 | 683 | shift of absorption maxima to blue when each vinyl group was changed to a methyl [4]: about 5 nm
Si-vinyl-Si-methyl-N,N-tetramethyl-SiR [Compound 10A] | – | – | – | 41 | 678 | 666 | – | – | 668 | 688 | photobleaching during imaging / photostability vs AF647 (tubulin [7]): better photostability than AF647; target specificity, off-target or background fluorescence (tubulin [7]): no off-target or background fluorescence; brightness compared with AF647 (tubulin [7]; Cy5 channel): less bright than AF647; shift of absorption maxima to blue when each vinyl group was changed to a methyl [4]: about 5 nm
